Activity calls are given as the source filed them. No rule for the calls is given here.
Test system: GENE-TOX genotoxicity assays, various organisms and cells
Assay: GENE-TOX mutagenicity studies
Conditions: for call: Assay Type: In vivo carcinogenicity studies
[1] = Species/Cell Type: Allium cepa, Assay Type: Chromosome aberrations, Assay Code: ALC+D, Dose Response: With dose response, Evaluation Type: Evaluation A (Pre-1980)
[2] = Species/Cell Type: Drosophila melanogaster, Assay Type: Sex-linked recessive lethal gene mutation, Assay Code: SRL+, Evaluation Type: Evaluation A (Pre-1980)
[3] = Species/Cell Type: Allium cepa, Assay Type: Chromosome aberrations, Assay Code: ALC+, Evaluation Type: Evaluation A (Pre-1980)
[4] = Species/Cell Type: Mammalian polychromatic erythrocytes, Assay Type: Micronucleus test, chromosome aberrations, Assay Code: MNTT, Evaluation Type: Evaluation A (Pre-1980)
[5] = Species/Cell Type: Nonhuman, Assay Type: Sister-chromatid exchange (SCE) in vitro, Assay Code: SC2T, Evaluation Type: Evaluation B (Post-1980)
[6] = Species/Cell Type: Escherichia coli polA (W3110 vs P3478), Assay Type: Rec-assay, DNA effects (bacterial DNA repair), Assay Code: RE2-, Evaluation Type: Evaluation A (Pre-1980)
[7] = Species/Cell Type: Escherichia coli polA (W3119 vs P3478), Assay Type: Rec-assay, DNA effects (bacterial DNA repair), Assay Code: RE1-, Evaluation Type: Evaluation A (Pre-1980)
[8] = Species/Cell Type: Fischer rat embryo (RLV/1706) cells, Assay Type: Cell transformation, viral enhanced, Assay Code: CTR+, Evaluation Type: Evaluation A (Pre-1980)
[9] = Species/Cell Type: Mouse, Sex: Male, Assay Type: Sperm morphology, Assay Code: SPI-, Evaluation Type: Evaluation A (Pre-1980)
[10] = Species/Cell Type: Neurospora crassa, Assay Type: Aneuploidy, chromosome aberrations, Assay Code: NEN-, Evaluation Type: Evaluation A (Pre-1980)
[11] = Species/Cell Type: Syrian hamster embryo (SHE) cells, Assay Type: Cell transformation, clonal assay, Assay Code: CTC+, Evaluation Type: Evaluation A (Pre-1980)
[12] = Species/Cell Type: Salmonella typhimurium (one or more of the five standard strains: TA98, TA100, TA1535, TA1537, and TA1538), Assay Type: Histidine reverse gene mutation, Ames assay, Assay Code: SAL+, Evaluation Type: Evaluation A (Pre-1980)

For `CC(=O)NO`, the mutagenic call (Species/Cell Type: Human lymphocytes or leukocytes, Assay Type: Chromosome aberrations in vitro, Assay Code: CY7-, Evaluation Type: Evaluation A (Pre-1980)) was “inactive; negative”.
With `[Cl][Sn]([Cl])([Cl])[Cl]` the mutagenic call (Species/Cell Type: Bacillus subtilis (H17 vs M45), Assay Type: Rec-assay, spot test, DNA effects (bacterial DNA repair), Assay Code: REW-, Evaluation Type: Evaluation A (Pre-1980)) was “inactive; negative”.
For `O=O`, the mutagenic call (Species/Cell Type: Chinese hamster lung (V79) cells, Assay Type: Forward gene mutation at the HPRT or ouabain locus, Assay Code: V79+, Evaluation Type: Evaluation A (Pre-1980)) was “active; positive”.
`CC(=O)NNC(=O)c1ccncc1` was tested, and the mutagenic call (Species/Cell Type: Salmonella typhimurium, Assay Type: Forward and reverse gene mutation, host-mediated assay, Assay Code: HMAT, Evaluation Type: Evaluation A (Pre-1980)) was “no conclusion”.
In the case of `CO[C@H](C)[C@](O)(C(=O)OCC1=CCN2CC[C@H](O)[C@@H]12)C(C)C`, the mutagenic call [1] is reported as “active; positive”, the mutagenic call (Species/Cell Type: Aspergillus nidulans, Assay Type: Forward gene mutation, Assay Code: ASF+, Evaluation Type: Evaluation A (Pre-1980)) is reported as “active; positive” and the mutagenic call (Species/Cell Type: Drosophila melanogaster, Assay Type: Aneuploidy, sex chromosome gain, chromosome aberrations, Assay Code: DAGT, Evaluation Type: Evaluation A (Pre-1980)) is reported as “no conclusion”. The mutagenic call (Species/Cell Type: Drosophila melanogaster, Assay Type: Aneuploidy, whole sex chromosome loss, chromosome aberrations, Assay Code: DAC+M, Evaluation Type: Evaluation A (Pre-1980)) was “active; positive”, the mutagenic call [2] was “active; positive” and the mutagenic call (Species/Cell Type: Drosophila melanogaster, Sex: Male, Assay Type: Heritable translocation test, chromosome aberrations, Assay Code: DHTT, Evaluation Type: Evaluation A (Pre-1980)) was “no conclusion”. The mutagenic call (Species/Cell Type: Mammalian polychromatic erythrocytes, Assay Type: Micronucleus test, chromosome aberrations, Assay Code: MNT+, Evaluation Type: Evaluation B (Post-1980)) was “active; positive” and the mutagenic call (Species/Cell Type: Nonhuman, Assay Type: Sister-chromatid exchange (SCE) in vitro, Assay Code: SC2+D, Dose Response: With dose response, Evaluation Type: Evaluation B (Post-1980)) was “active; positive”.
For `Cc1cc(=O)oc2ccccc12`, the mutagenic call [3] was “active; positive”.
`[Hg][c]1ccccc1` was tested, and the mutagenic call [1] was “active; positive”.
In the case of `OC[C@H]1O[C@@](CO)(O[C@H]2O[C@H](CO)[C@@H](O)[C@H](O)[C@H]2O)[C@@H](O)[C@@H]1O`, the mutagenic call [4] is reported as “no conclusion” and the mutagenic call [5] is reported as “no conclusion”.
For `Nc1ncn[nH]1`, the mutagenic call [3] was “active; positive”, the mutagenic call (Species/Cell Type: Drosophila melanogaster, Assay Type: Aneuploidy, sex chromosome gain, chromosome aberrations, Assay Code: DAG-F, Evaluation Type: Evaluation A (Pre-1980)) was “inactive; negative” and the mutagenic call (Species/Cell Type: Drosophila melanogaster, Assay Type: Aneuploidy, whole sex chromosome loss, chromosome aberrations, Assay Code: DAC-F, Evaluation Type: Evaluation A (Pre-1980)) was “inactive; negative”. For the same compound, the mutagenic call (Species/Cell Type: Drosophila melanogaster, Assay Type: Sex-linked recessive lethal gene mutation, Assay Code: SRLT, Evaluation Type: Evaluation A (Pre-1980)) was “no conclusion”, the mutagenic call [6] was “inactive; negative” and the mutagenic call [7] was “inactive; negative”. For the same compound, the mutagenic call [8] was “active; positive”, the mutagenic call (Species/Cell Type: Hordeum vulgare (barley), Assay Type: Chromosome aberrations, Assay Code: HOC+, Evaluation Type: Evaluation A (Pre-1980)) was “active; positive” and the mutagenic call (Species/Cell Type: Human diploid fibroblasts, Assay Type: Unscheduled DNA synthesis (UDS) in vitro, DNA effects, Assay Code: UDH-, Evaluation Type: Evaluation A (Pre-1980)) was “inactive; negative”. For the same compound, the mutagenic call [4] was “no conclusion”, the mutagenic call [9] was “inactive; negative” and the mutagenic call [10] was “inactive; negative”. The call (Species/Cell Type: Nonhuman, Assay Code: CCG+, Evaluation Type: Evaluation A (Pre-1980)) was “active; positive”, the mutagenic call (Species/Cell Type: Nonhuman, Assay Type: Sister-chromatid exchange (SCE) in vitro, Assay Code: SC2+D*, Activation: With metabolic activation, Dose Response: With dose response, Evaluation Type: Evaluation B (Post-1980)) was “active; positive” and the mutagenic call (Species/Cell Type: Saccharomyces cerevisiae, Assay Type: Mitotic recombination or gene conversion, Assay Code: YEH-, Evaluation Type: Evaluation A (Pre-1980)) was “inactive; negative”. For the same compound, the mutagenic call (Species/Cell Type: Salmonella typhimurium (one or more of the five standard strains: TA98, TA100, TA1535, TA1537, and TA1538), Assay Type: Histidine reverse gene mutation, Ames assay, Assay Code: SAL-, Evaluation Type: Evaluation A (Pre-1980)) was “inactive; negative”, the mutagenic call (Species/Cell Type: Salmonella typhimurium, Assay Type: Forward and reverse gene mutation, host-mediated assay, Assay Code: HMA+, Evaluation Type: Evaluation A (Pre-1980)) was “active; positive” and the mutagenic call [11] was “active; positive”. The mutagenic call (Species/Cell Type: Vicia faba, Assay Type: Chromosome aberrations, Assay Code: VIC+, Evaluation Type: Evaluation A (Pre-1980)) was “active; positive”.
`Cc1c2ccccc2c(C)c2c1cc(O)c1ccccc12` was tested, and the mutagenic call (Species/Cell Type: Chinese hamster lung (V79) cells, Assay Type: Forward gene mutation at the HPRT or ouabain locus, Assay Code: V79-*, Activation: With metabolic activation, Evaluation Type: Evaluation A (Pre-1980)) was “inactive; negative” and the call (Species/Cell Type: Nonhuman, Assay Code: CCGT, Evaluation Type: Evaluation A (Pre-1980)) was “no conclusion”.
`O=S(O)(O)=S` was tested, and the mutagenic call (Species/Cell Type: Allium cepa, Assay Type: Chromosome aberrations, Assay Code: ALC-, Evaluation Type: Evaluation A (Pre-1980)) was “inactive; negative”.
In the case of `OCC(O)CCl` (stereo not given), the mutagenic call (Species/Cell Type: Rat, Sex: Male, Assay Type: Sperm morphology, Assay Code: SPAT, Evaluation Type: Evaluation A (Pre-1980)) is reported as “no conclusion” and the mutagenic call (Species/Cell Type: Rodents, Sex: Male, Assay Type: Dominant lethal test, Assay Code: DLT-, Evaluation Type: Evaluation A (Pre-1980)) is reported as “inactive; negative”.
`CCC(Cc1c(I)cc(I)c(N)c1I)C(=O)O` (stereo not given) was tested, and the mutagenic call (Species/Cell Type: Human lymphocytes, Assay Type: Sister-chromatid exchange (SCE) in vitro, Assay Code: SCLT, Evaluation Type: Evaluation B (Post-1980)) was “no conclusion” and the mutagenic call (Species/Cell Type: Human, Assay Type: Sister-chromatid exchange (SCE) in vitro, Assay Code: SC1T, Evaluation Type: Evaluation B (Post-1980)) was “no conclusion”.
In the case of `CCN(CC)CCOc1ccc2c(c1)C(=O)c1cc(OCCN(CC)CC)ccc1-2`, the mutagenic call (Species/Cell Type: Mouse (C3H/10T1/2) cells, Assay Type: Cell transformation, Assay Code: CTH-, Evaluation Type: Evaluation A (Pre-1980)) is reported as “inactive; negative”, the mutagenic call (Species/Cell Type: Nonhuman, Assay Type: Sister-chromatid exchange (SCE) in vitro, Assay Code: SC2-, Evaluation Type: Evaluation A (Pre-1980)) is reported as “inactive; negative” and the mutagenic call [5] is reported as “no conclusion”. The mutagenic call [12] was “active; positive”.
For `COc1ccc2[nH]c3c(C)c4ccncc4c(C)c3c2c1`, the mutagenic call (Species/Cell Type: Chinese hamster ovary (CHO) cells, Assay Type: Forward gene mutation at the HPRT locus, Assay Code: CHO+, Evaluation Type: Evaluation B (Post-1980)) was “active; positive”.
In the case of `Nc1ccc([N+](=O)[O-])cc1N`, the mutagenic call [2] is reported as “active; positive”, the mutagenic call [8] is reported as “active; positive” and the mutagenic call (Species/Cell Type: Human diploid fibroblasts, Assay Type: Unscheduled DNA synthesis (UDS) in vitro, DNA effects, Assay Code: UDHT, Evaluation Type: Evaluation A (Pre-1980)) is reported as “no conclusion”. For the same compound, the mutagenic call [4] was “no conclusion”, the mutagenic call (Species/Cell Type: Mouse (C3H/10T1/2) cells, Assay Type: Cell transformation, Assay Code: CTH+, Evaluation Type: Evaluation A (Pre-1980)) was “active; positive” and the mutagenic call [9] was “inactive; negative”. The mutagenic call [10] was “inactive; negative”, the mutagenic call (Species/Cell Type: Nonhuman, Assay Type: Chromosome aberrations in vitro, Assay Code: CY&+D, Dose Response: With dose response, Evaluation Type: Evaluation A (Pre-1980)) was “active; positive” and the call (Species/Cell Type: Nonhuman, Assay Code: CCG-, Evaluation Type: Evaluation A (Pre-1980)) was “inactive; negative”. For the same compound, the mutagenic call (Species/Cell Type: Nonhuman, Assay Type: Sister-chromatid exchange (SCE) in vitro, Assay Code: SC2+D, Dose Response: With dose response, Evaluation Type: Evaluation A (Pre-1980)) was “active; positive”, the mutagenic call (Species/Cell Type: Nonhuman, Sex: Male, Assay Type: Sister-chromatid exchange (SCE) in vivo, Assay Code: SC3TM, Evaluation Type: Evaluation B (Post-1980)) was “no conclusion” and the mutagenic call (Species/Cell Type: Rodents, Sex: Male, Assay Type: Dominant lethal test, Assay Code: DLTT, Evaluation Type: Evaluation A (Pre-1980)) was “no conclusion”. The mutagenic call (Species/Cell Type: Saccharomyces cerevisiae, Assay Type: Reverse gene mutation, Assay Code: YER-, Evaluation Type: Evaluation A (Pre-1980)) was “inactive; negative”, the mutagenic call [12] was “active; positive” and the mutagenic call (Species/Cell Type: Salmonella typhimurium, Assay Type: Forward and reverse gene mutation, body fluid assay, Assay Code: BFU+, Evaluation Type: Evaluation A (Pre-1980)) was “active; positive”. The mutagenic call [11] was “active; positive”.
With `CC(=O)c1ccccc1` the mutagenic call [6] was “inactive; negative” and the mutagenic call [7] was “inactive; negative”.
